Results: ChEMBL document CHEMBL3813647, “Discovery of an Orally Active and Liver-Targeted Prodrug of 5-Fluoro-2'-Deoxyuridine for the Treatment of Hepatocellular Carcinoma” (J Med Chem, 2016)

Tests used:
Liver = assay: Drug uptake in Sprague-Dawley rat liver treated with (S)-Isopropyl 2-(((R)-(((2R,3S,5R)-5-(5-fluoro-2,4-dioxo-3,4-dihydropyrimidin-1(2H)-yl)-3-hydroxytetrahydrofuran-2-yl)methoxy)((2-methylbenzyl)oxy)phosphoryl)amino)propanoate; format: ADME, tissue-based; details: in vivo
Plasma = assay: Drug uptake in Sprague-Dawley rat plasma treated with (S)-Isopropyl 2-(((R)-(((2R,3S,5R)-5-(5-fluoro-2,4-dioxo-3,4-dihydropyrimidin-1(2H)-yl)-3-hydroxytetrahydrofuran-2-yl)methoxy)((2-methylbenzyl)oxy)phosphoryl)amino)propanoate; format: ADME, cell-free

Drug uptake (Liver): metabolite_detected | Drug uptake (Plasma): metabolite_detected
SMILES: Cc1ccccc1C(=O)NCC(=O)O
